experiment: Human HepG2 cell viability assay in 384 well format; assay type: toxicity, cell-based; design: dose 125 nL, time 70.5 hour; concentration not given beside the values; details: HepG2 cells, read-out: Inhibition

Row | SMILES | cytotoxicity at 70.5 h
1 | O=S(=O)(c1ccc(F)c(F)c1)N1CCCC(c2nccs2)C1 (configuration not stated) | 1.6%
2 | CCn1nc(CC(C)C)cc1C(=O)N1CC[C@@H](O)C1 | -3.86%
3 | Cc1ccc(F)c(OC2(C(=O)O)CCN(C(=O)c3ccccc3)CC2)c1 | -6.1%
4 | Cc1cc(N(C)CCN(C)C2CCCC2)n2nc(C)cc2n1 | -1.99%
5 | CSCC[C@H](N)C(=O)NCc1cc2n(n1)CCCN(C1CCCCC1)C2 | -5.05%
6 | CCc1oc(C(=O)NCCNS(C)(=O)=O)cc1CN1CCCC1 | 11.7%
7 | COc1ccc(C(=O)NC2CC2)c(OC2CCN(C3CCC3)CC2)c1 | -3.47%
8 | COc1ccc(CNC[C@H]2COCc3nc4cccnc4n32)cc1 | -4.57%
9 | CCOc1ccc(-c2nc(C(=O)NCC3CCOC3)cs2)cc1 (configuration not stated) | -7.97%
10 | CCCNC(=O)C(C)n1nc(-c2ccc(C)o2)cc(N)c1=O (configuration not stated) | -1.77%
11 | CSCCCNC(=O)c1coc(Cn2cnc3ccccc32)n1 | -6.75%
12 | CCc1ccc2nc(C)cc(C(=O)N[C@@H]3C[C@@H](CO)N(C)C3)c2c1 | -3.88%
13 | COCc1nc(-c2ccnc(N3CCNCC3)n2)no1 | 2.75%
14 | NCC(=O)N1CCCC1c1ccc(C(=O)NCc2ccoc2)s1 (configuration not stated) | -2.34%
15 | CCOCc1ncn2c1CN(S(=O)(=O)c1ccc(F)cc1)CC2 | 9.27%
16 | O=C(CCN1CCCCC1c1cc2ccccc2[nH]1)N1CCOCC1 (configuration not stated) | 8.08%
17 | CNC(=O)C1(c2cnccn2)CCCN1C(=O)c1ccn(C)n1 (configuration not stated) | -1.48%
18 | COCCC1(CNC(=O)NC2CCCN(C)C2)CC1 (configuration not stated) | 0.563%
19 | O=C(NCc1ccco1)[C@H]1C[C@@H]2CCN(c3ccncn3)C[C@@H]2O1 | -5.88%
20 | Cc1ccc(-c2nc(C(=O)N3CCOCC3)cs2)c(C)c1 | -12.3%
21 | CCc1cc(=O)[nH]c2nnc(SCC(=O)NC(C)C)n12 | 17.6%
22 | O=C(O)c1cc(-c2cc[nH]n2)cc(S(=O)(=O)N2CCCCCC2)c1 | -4.16%
23 | CC[C@H](C)Nc1ncc(-c2cccc(NC(=O)CNC)c2)cn1 | -0.898%

Row | SMILES | cytotoxicity at 70.5 h
24 | CSc1ccccc1C(=O)N1C[C@H]2CC[C@@H]1CN(C(=O)C1CCC1)C2 | -4.19%
25 | CCN(Cc1ccc2c(c1)OCCO2)S(=O)(=O)N(C)C(C)C | -7.62%
26 | O=C(c1cc(C2CC2)on1)N1CCCC(n2cncn2)C1 (configuration not stated) | 30.6%
27 | CS(=O)(=O)c1ccc(CN2CCCC3(C2)C(=O)Nc2ccccc23)cc1 (configuration not stated) | 24.9%
28 | CC(C)c1cnc(CN(C)C2CCN(CCn3cc(C#N)cn3)C2)o1 (configuration not stated) | -2.83%
29 | COc1ccc(C[C@H]2CNCC[C@@H]2OCC2CC2)cc1 | -8.25%
30 | CC(C)(CNC(=O)c1ccco1)CNC(=O)c1ccco1 | -1.35%
31 | CN(CC(=O)N1CC(Oc2ccccc2Cl)C1)Cc1ccncc1 | 12.8%
32 | CCN(CC)C[C@H]1CN2CC[C@H]1C[C@@H]2CNC(=O)c1ccco1 | -3.47%
33 | Cn1cc(CN2CCc3c(COCc4ccncc4)cncc3C2)cn1 | -6.18%
34 | Cc1ccsc1CN(C)c1cc(N2CCOCC2)ncn1 | -2.06%
35 | NC(=O)c1ccc(CNC(=O)Nc2cn[nH]c2)cc1 | 16%
36 | Cc1ccnc(NCCCN2CCc3ccccc32)n1 | -2.9%
37 | Cc1nc(-c2ccsc2)ccc1C(=O)NCC(C)N1CCOCC1 (configuration not stated) | -4.37%
38 | c1ccc(Cn2cc(CNCC3CCCN3c3cccnn3)cn2)cc1 (configuration not stated) | 3.57%
39 | O=C1[C@H]2CN(Cc3ccncc3)C[C@H]2CN1c1ccsc1 | -10.1%
40 | Cc1ncnc2c1CCN(Cc1cccs1)CC2 | 22.9%
41 | CC(C)Nc1nc2c(cc1C(=O)NCC1CC1)CCN(CC1CC1)CC2 | 25.7%
42 | Cc1noc(CNc2c(N3CCCC3)cccc2N2CCCC2)n1 | 7.99%
43 | O=C(CCn1cc(Cl)cn1)Nc1ncccn1 | -4.36%
44 | CNC(=O)NC(=O)CSC(C)c1ccccc1F (configuration not stated) | -15.4%
45 | Cc1cnn(CC(C)NCc2cccc(C#N)c2)c1 (configuration not stated) | 2.17%
46 | Cc1noc(CNC(=O)C(C)(C)NC(=O)OC(C)(C)C)n1 | 18.7%

Row | SMILES | cytotoxicity at 70.5 h
47 | COCCn1cncc1CN1CCC(C(C)=O)(c2ccccc2)CC1 | -15.1%
48 | CCc1nnc2n1CCN(C(=O)C1CCC(n3cccc3)CC1)C2 (configuration not stated) | -6.9%
49 | CN(C)S(=O)(=O)N1C[C@H]2CCC[C@@]2(COCc2cccnc2)C1 | -6.86%
50 | COc1ccccc1OCC(=O)NCC(O)(c1cccs1)C1CC1 (configuration not stated) | -5.23%
51 | C=C(C)CN(CC)C(=O)CN1CCCC1C(=O)N(C)C (configuration not stated) | -4.6%
52 | COCCNC(=O)NCCCOC1CCCc2ccccc21 (configuration not stated) | 1.91%
53 | CCOc1ccc(Cl)c(C(=O)N2CCCC(c3cc(C)[nH]n3)C2)n1 (configuration not stated) | -2.21%
54 | COCCN(c1cc(C)nc2nc(C(F)(F)F)nn12)C1CCCC1 | 12.8%
55 | CCN1Cc2cc(F)ccc2N(C(=O)C2CCC2)CCC1=O | -9.67%
56 | COc1cccc(S(=O)(=O)NC(=O)CC2CCCC2)c1 | -3.66%
57 | CCOC(=O)CNC(=O)NCc1cc(C)n(-c2ccc(OC)cc2)c1C | -22.5%
58 | Cc1ccc(=O)n(CC2(O)CCN(Cc3c(F)cccc3F)CC2)n1 | 0.803%
59 | Cc1nc(C(=O)N2CC(C)Sc3ccccc32)cs1 (configuration not stated) | -7.31%
60 | CC(C)c1ncc2c(n1)CN(Cc1nc(-c3ccccn3)no1)CC2 | -6.83%
61 | COCc1cc(N2CCOC(c3ccc(Cl)c(Cl)c3)C2)ncn1 (configuration not stated) | -12.1%
62 | Cc1nn(C)c(C)c1C(C(=O)O)N1CC=C(c2ccccc2)CC1 (configuration not stated) | 10.9%
63 | CNc1cncc(C2CCN(S(C)(=O)=O)CC2)n1 | -2.96%
64 | COc1ncccc1NC(=O)C1CCS(=O)(=O)C1 (configuration not stated) | -15.1%
65 | Cc1ccc(NC(=O)C2CSCN2C(=O)c2cnn(C)c2)c(C)c1 (configuration not stated) | -4.99%
66 | COc1ccc(C(=O)N2C[C@@H](O)[C@H](NCc3ncccc3C)C2)cc1 | -8.03%
67 | CS(=O)(=O)NC1CCN(C(=O)c2ccc(F)cc2)CC1 | -3.98%
68 | CNC(=O)c1cccc(C2CNCCN2C)c1 (configuration not stated) | 19.9%
69 | O=S(=O)(C1CC1)N1CCC2(CC1)CN(Cc1ccccn1)CCO2 | 14.8%

Row | SMILES | cytotoxicity at 70.5 h
70 | COCc1ccc(C(=O)N2CCC(c3cc4nccnc4[nH]3)CC2)cc1 | -14.3%
71 | O=C(NC[C@@H]1CCCO1)c1cccnc1N1CCCC1c1ccccc1 (some centres not stated) | -5.49%
72 | CN1C[C@@H]2CN(C(=O)C3CC=CC3)C[C@@H]2C1=O | -5.58%
73 | Cc1nnc(CCNC(=O)C2CC(=O)N(C(C)(C)C)C2)s1 (configuration not stated) | 26.2%
74 | COc1c(CNCc2cccnc2N2CCOCC2)c(C)nn1C | 1.9%
75 | O=C([C@@H]1C[C@@H]2CCN(CCc3ccccc3)C[C@H]2O1)N1CCCC1 | -3.84%
76 | CC(C)c1nnc2n1CCN(C(=O)c1ccc(OCC3CC3)nc1)C2 | 11%
77 | Cc1ncsc1C(=O)N1CCN(CCC(C)C)CC1 | -6.29%
78 | CCc1cc(=O)[nH]c2nnc(SCC(=O)NC)n12 | 14.5%
79 | CC(C)(C)c1cnc(CN2CCC(NC(=O)NC3CCCCC3)CC2)o1 | 1.07%
80 | Cc1c(C(=O)NC2CC(C)(C)NC(C)(C)C2)cnn1-c1ccc(F)cc1 | -2.72%
81 | COCCN1CCN(C(=O)C[C@@H]2C[C@@H](C(C)C)[C@H](CO)C=C2C)CC1 | -3.05%
82 | CCN1CCCC(C)(C(=O)NCCCc2nc(C)cs2)C1 (configuration not stated) | -10.4%
83 | CC(C)n1[nH]c(=O)c2c1NC(=O)CC2c1ccncc1 (configuration not stated) | -11.3%
84 | c1cnc(N2CCCC(NCc3ccc(-n4ccnc4)cc3)C2)nc1 (configuration not stated) | -4.91%
85 | CNc1ncc(-c2csc(NC(=O)C[C@H]3COCCN3)n2)cn1 | -11.4%
86 | NC1(C(=O)N2CCC(c3cc(-c4ccccc4Cl)n[nH]3)CC2)CCC1 | 46.9%
87 | O=C(NCCCn1ccnc1)c1csc2c1CCCC2 | 15.4%
88 | O=C(N[C@@H]1CCC[C@@H](n2ccnc2)[C@@H]1O)c1ccc2c(c1)CCCC2 | 30.9%
89 | CSc1ncc(C(=O)N2C[C@H]3CC[C@@H]2CN(S(=O)(=O)N(C)C)C3)cn1 | -1.22%
90 | COc1ccccc1C1(CNc2cc(C(=O)N(C)C)ccn2)CC1 | 0.399%
91 | Cc1cc(=O)n(CCNS(=O)(=O)c2cccc(C(F)(F)F)c2)cn1 | -8.24%
92 | Cc1cc(NC(=O)CN2CCCC(Cn3cncn3)C2)no1 (configuration not stated) | -3.46%

Row | SMILES | cytotoxicity at 70.5 h
93 | CCn1c(C2CCCN(C(=O)C(C)(C)OC)C2)nn(CCN(C)C)c1=O (configuration not stated) | -1.55%
94 | CN(c1ncc(C(=O)Nc2ccccc2)c(N)n1)C1CCCCC1 | -0.75%
95 | CCC(CC)n1ncc(C(=O)NS(=O)(=O)c2ccsc2)c1C | 21.2%
96 | Cc1csc([C@@H]2C[C@@H]3CCN(C(=O)c4ccnnc4)C[C@H]3O2)n1 | -3.66%
97 | COc1ccc(C)cc1CC(=O)NC(CC(=O)O)c1ccc(F)cc1 (configuration not stated) | -18.4%
98 | CS(=O)(=O)CC(=O)N(CCN1CCOCC1)Cc1ccco1 | 22.7%
99 | Cc1[nH]ccc1C(=O)N[C@H]1CN(S(C)(=O)=O)C[C@@H]1C1CC1 | -5.26%
100 | O=C(Nc1cnc(Oc2ccccc2)nc1)C1CC1 | -2.39%
101 | CN(Cc1ccsc1)Cc1ccc(C2CCCCO2)o1 (configuration not stated) | -3.14%
102 | Cn1nc(C(=O)NCc2ccc(Cl)cc2)c2c1CCS(=O)(=O)C2 | 2.61%
103 | O=C(COc1cccc(Cl)c1)N1CCOCC(O)(CN2CCCC2)C1 (configuration not stated) | -3.79%
104 | Cc1cc(C)n(C2CCCN(C(=O)c3ccnc(N(C)C)c3)C2)n1 (configuration not stated) | -0.851%
105 | Clc1ccccc1-c1nc(CNCCn2cccn2)cs1 | -6.01%
106 | CCC(C)c1noc(C2CCN(C(=O)c3cccs3)CC2)n1 (configuration not stated) | -10.7%
107 | CN(CCCc1cnn(C)c1)C(=O)C1CCN(C(=O)C2CCC2)CC1 | -10.7%
108 | CN(C)C(=O)CN1CCC2(CCN(Cc3nccs3)CC2)C1=O | 16.1%
109 | CN(C)CC1CN(Cc2nnc(-c3ccccc3Cl)o2)CCO1 (configuration not stated) | 3.65%
110 | Cc1cc(C)cc(OCCC(=O)NC2CC(=O)N(C)C2)c1 (configuration not stated) | -0.646%
111 | CC(=O)N1CCN(Cc2c(C)ccc3ccccc23)CC(O)C1 (configuration not stated) | -6.49%
112 | Nc1nccnc1CC1CCCN(Cc2ccnc3ccccc23)C1 (configuration not stated) | 27.7%
